{
  "source": "patent US10450613B2",
  "about": "“EGFR/NEDD9/TGF-β interactome and methods of use thereof for the identification of agents having efficacy in the treatment of hyperproliferative disorders” (Fox Chase Cancer Center, priority 2007, dated 2019)",
  "key": {"[1]": {"system": "A431 cells", "experiment": "Drug synergy testing (Chou-Talalay CI), viability", "type": "cell-based, human", "details": "72 hours, CI <1 synergy, <0.5 strong synergy", "description": "(§1) The coefficient of interaction (CI) between pharmacological inhibitors was established by the Chou-Talalay method (Chou et al., (1984) Adv Enzyme Regul 22:27). The software package CalcuSyn (BioSoft, UK) was used to automate calculations. Briefly, for each drug tested, an IC50 curve was established in each cell line, and used to select combination doses of drugs for subsequent synergy tests. 3500 cells were plated per well in 96-well plates. After 24 hours, cells were treated with serial dilutions of individual inhibitors, or combinations of two inhibitors maintained at a constant molar ratio. After 72 hours incubation, cell viability was measured using either CellTiter Blue (Promega, USA) or a WST1 assay (Roche Applied Science, Indianapolis, Ind.). The CI values for each dose and corresponding cytotoxicity were expressed as the fraction affected (Fa) and were calculated using CalcuSyn computer software and presented as Fa-CI plots. CI values <1 indicate synergy, and <0.5 strong synergy, between the two agents in producing cytotoxic effect."}, "[2]": {"system": "HCT116 cells", "experiment": "Drug synergy testing (Chou-Talalay CI), viability", "type": "cell-based, human", "description": "as §1"}, "[3]": {"system": "cancer cells", "experiment": "Drug synergy testing (Chou-Talalay CI), cell line not stated (FIG. 17B)", "type": "cell-based", "description": "as §1"}, "[4]": {"system": "HCT116 cells", "experiment": "Apoptosis after drug combination treatment", "type": "cell-based, human", "details": "HCT116, 72 hours (FIG. 17C)"}, "[5]": {"system": "EGFR, ERK1/2 and AKT phosphorylation", "experiment": "Western analysis of EGFR pathway after inhibitor treatment and EGF stimulation", "type": "cell-based, human"}, "[6]": {"system": "A431 cells", "experiment": "Phosphoproteomic analysis, Proteome Profiler array of 46 signaling proteins", "type": "cell-based, human", "description": "For phosphoproteomic analysis, we used the Proteome Profiler™ array (R&D Systems, Minneapolis, Minn., USA) according to the manufacturer's protocol. In brief, A431 cells were grown for 24 hours in DMEM supplemented with L-glutamine and 1% FBS to 70% confluency. Cells then were either serum starved overnight or remained in the same media. Serum starved and cells incubated in 1% serum were either left untreated or incubated with IC30 concentrations of inhibitors for 3 hours. […] Serum-starved cells were subsequently stimulated with recombinant EGF (Sigma-Aldrich, USA) at 15 ng/mL for 15 minutes before lysis. For a subset of phospho-proteins, phosphorylation status was confirmed by Western blot. Quantification was done using ImageJ software."}, "[7]": {"details": "PHA-680632 alone, transient EGF stimulation"}, "[8]": {"details": "A431, serum starved, EGF-stimulated (FIG. 19A)"}},
  "data": [
    {"molecule": "CCc1cccc(CC)c1NC(=O)N1Cc2n[nH]c(NC(=O)c3ccc(N4CCN(C)CC4)cc3)c2C1", "note": "[PHA-680632]", "values": [
      {"measurement": "Synergy with erlotinib in reducing viability (Chou-Talalay CI)", "setting": "[1]", "result": "synergized strongly"},
      {"measurement": "Cell viability, combination with erlotinib", "setting": "[2]; HCT116 (FIG. 17D)", "result": "Dose-dependent inhibition"},
      {"measurement": "Synergy with erlotinib in reducing viability (Chou-Talalay CI)", "setting": "[2]; HCT116, 72 hours, CI <1 synergy, <0.5 strong synergy", "result": "synergized strongly"},
      {"measurement": "Synergy with cetuximab (Chou-Talalay CI)", "setting": "[3]", "result": "synergized"},
      {"measurement": "Frequency of apoptosis, combination with erlotinib", "setting": "[4]", "result": "increases apoptosis"},
      {"measurement": "S473-AKT phosphorylation, combination with erlotinib", "setting": "[5]; 3 hrs inhibitors then EGF, vs either agent alone (FIGS. 17H, 18; HCT116)", "result": "very significantly reduced"},
      {"measurement": "EGFR expression, autophosphorylation, and activation", "setting": "[5]; [7]", "result": "did not inhibit"},
      {"measurement": "ERK1/2 or AKT phosphorylation", "setting": "[5]; [7]", "result": "little effect"},
      {"measurement": "Phosphorylation of 46 signaling proteins, combination of erlotinib and PHA-680632", "setting": "[6]; A431, 1% serum steady state, erlotinib 0.5 μM plus PHA 0.1 μM (FIG. 19B)", "result": "significant reduction in activity of STAT3, and a group of Src kinases"},
      {"measurement": "Phosphorylation of 46 signaling proteins, combination of erlotinib and PHA-680632", "setting": "[6]; [8]", "result": "specific inhibition of a subset of proteins"},
      {"measurement": "Phosphorylation of 46 signaling proteins, single agent", "setting": "[6]; [8]", "result": "little effect"}
    ]}
  ]
}
